Results reported in patent publication US7119256B2, “Gene encoding acetolactate synthase” (priority 2000, dated 2006).

Experiments:
[1] = system: wild type (Kinmaze) culture cells; experiment: Growth of wild type rice (Kinmaze) culture cells in liquid medium with herbicide (relative wet weight); type: cell-based, Oryza sativa var. Kinmaze
Procedure: Approximately 1.5 g (wet weight) of the resistant mutant was transplanted in 200 ml of a Erlenmeyer flask supplemented with 50 ml of a MS-2,4-D liquid medium and bispyribac-sodium at an appropriate concentration, followed by culturing at approximately 27° C. for an appropriate period. The wet weight of the callus was measured periodically. The relative amount of increase was determined based on the wet weight of the transplanted resistant mutant. In addition, the experiment was performed three times with different bispyribac-sodium concentrations, and the standard error was calculated. […] As a control, a similar experiment was conducted using the wild type (Kinmaze).
The growth rates of the wild type and the resistant mutant were measured as described above except for the use of chlorsulfuron instead of bispyribac-sodium.

[2] = biological target: mutant ALS protein (Oryza sativa subsp. japonica, UniProt Q6K2E8, S627I/W548L); experiment: Herbicide sensitivity of ALS partially purified from the resistant mutant (acetoin colorimetric ALS activity); type: biochemical, rice (Kinmaze); parameters: from tissue; host or cells: resistant mutant rice (Kinmaze) cultured cells, liquid culture; ammonium sulfate, Sephadex G-25, HiTrap Q
Sequence of mutant ALS protein (Oryza sativa subsp. japonica, UniProt Q6K2E8, S627I/W548L) (Q6K2E8 44-644 W548L/S627I): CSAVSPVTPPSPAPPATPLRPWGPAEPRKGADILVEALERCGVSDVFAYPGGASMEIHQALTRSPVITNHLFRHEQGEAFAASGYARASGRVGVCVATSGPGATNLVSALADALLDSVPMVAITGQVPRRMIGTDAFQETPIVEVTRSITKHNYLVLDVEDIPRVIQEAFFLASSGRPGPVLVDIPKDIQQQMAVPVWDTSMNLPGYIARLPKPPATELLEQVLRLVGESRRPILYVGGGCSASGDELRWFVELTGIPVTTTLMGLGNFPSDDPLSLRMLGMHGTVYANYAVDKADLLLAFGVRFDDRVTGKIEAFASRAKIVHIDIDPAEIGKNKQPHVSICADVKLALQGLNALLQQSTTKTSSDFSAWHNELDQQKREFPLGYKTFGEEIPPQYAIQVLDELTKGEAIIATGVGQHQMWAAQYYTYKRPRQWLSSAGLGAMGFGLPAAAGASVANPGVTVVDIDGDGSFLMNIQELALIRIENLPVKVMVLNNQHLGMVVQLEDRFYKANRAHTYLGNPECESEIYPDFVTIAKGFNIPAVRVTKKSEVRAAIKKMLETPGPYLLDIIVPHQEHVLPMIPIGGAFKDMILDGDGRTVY
Procedure: (§1) First, 200 g or more of resistant mutant was prepared by a liquid culture method (no supplementation with bispyribac-sodium), the culture having a composition as shown in Table 1 but without Gelrite. Then, about 150 g of the resistant mutant was homogenized using Hiscotron in a volume of buffer-1 [100 mM potassium phosphate buffer (pH 7.5) containing 20% (v/v) glycerol, 0.5 mM thiamin pyrophosphate (TPP), 10 μM flavin adenine dinucleotide (FAD), 0.5 mM MgCl2, and a volume of polyvinyl polypyrrolidone one-tenth that of tissue volume] 3-fold greater than tissue volume. The homogenate was filtered through nylon gauze, and then centrifuged at 15,000×g for 20 min. Ammonium sulfate was added to the centrifuged supernatant to 50% saturation, and then allowed to stand in ice for approximately 1 hour. The mixture was again centrifuged at 15,000×g for 20 min, and then the precipitated fraction was dissolved in about 30 ml of buffer-2 [10 mM Tris hydrochloric acid buffer (pH 7.5) containing 20% (v/v) glycerol, 0.5 mM TPP and 0.5 mM MgCl2]. […]
(§2) Next, the protein concentration of the crude enzyme solution was measured by the Bradford method according to the manual of Bio-Rad Protein Assay. […]
(§3) ALS activity resulting from the mutant ALS protein contained in the eluted fractions apportioned into each test tube for apportion was measured as follows. A reaction solution to be used in a measurement reaction was prepared by mixing an eluted fraction to be measured with a solution comprising 20 mM sodium pyruvate, 0.5 mM TPP, 0.5 mM MgCl2, 10 μM FAD and 20 mM potassium phosphate buffer (pH 7.5). […] After the eluted fraction to be measured was added, the measurement reaction was performed at 30° C. for 40 to 60 min. […]
(§4) Then, to quantify acetoin contained in the reaction solution, 1 ml of 0.5% (w/v) creatine and 1 ml of 5% (w/v) α-naphthol dissolved in 2.5 N sodium hydroxide was added to the reaction solution, followed by incubation at 37° C. for 10 min. Acetoin was then quantified by color comparison of the absorbance (at 525 nm) of the reaction solution, thereby evaluating ALS activity. […]

[3] = system: mutant ALS protein; experiment: as above; type: biochemical, rice (Kinmaze)
Procedure: as §1, §2, §3, §4

[4] = biological target: T1, wild type ALS protein (Oryza sativa subsp. japonica, UniProt Q6K2E8); experiment: Herbicide sensitivity of partially purified wild type ALS protein (acetoin colorimetric ALS activity); type: biochemical, rice (Kinmaze); parameters: the wild type ALS protein was separated and purified in the same manner and used for the experiment; from tissue; host or cells: wild type rice (Kinmaze) cultured cells, liquid culture; ammonium sulfate, Sephadex G-25, HiTrap Q
T1 sequence (Q6K2E8 44-644): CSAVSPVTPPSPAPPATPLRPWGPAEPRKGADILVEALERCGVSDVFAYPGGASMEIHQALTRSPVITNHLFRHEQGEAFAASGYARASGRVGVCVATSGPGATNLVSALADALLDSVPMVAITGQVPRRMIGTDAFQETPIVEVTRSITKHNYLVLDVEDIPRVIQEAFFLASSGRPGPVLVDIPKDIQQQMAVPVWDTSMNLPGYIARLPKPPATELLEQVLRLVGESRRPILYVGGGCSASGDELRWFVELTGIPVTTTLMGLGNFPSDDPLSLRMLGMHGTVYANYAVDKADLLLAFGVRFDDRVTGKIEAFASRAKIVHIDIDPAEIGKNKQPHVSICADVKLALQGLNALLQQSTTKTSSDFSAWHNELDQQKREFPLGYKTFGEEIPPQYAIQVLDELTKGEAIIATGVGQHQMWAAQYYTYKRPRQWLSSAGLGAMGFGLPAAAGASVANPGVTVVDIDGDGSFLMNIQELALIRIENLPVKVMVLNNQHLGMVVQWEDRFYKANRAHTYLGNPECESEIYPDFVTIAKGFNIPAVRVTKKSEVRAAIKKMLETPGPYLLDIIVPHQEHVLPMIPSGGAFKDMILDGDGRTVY

| SMILES | growth of the wild type (relative weight on day 8) ([1]; 1 nM bispyribac-sodium) | growth of the wild type (relative weight on day 8) ([1]; 10 nM or more bispyribac-sodium) | IC50 [2] [µM] | RS ratio Resistant mutant: I50 (resistant mutant)/I50 (wild type) [3] | IC50 [4] [µM] | growth of the wild type (relative weight on day 9) ([1]; 1 nM chlorsulfuron) |
| --- | --- | --- | --- | --- | --- | --- |
| COc1cc(OC)nc(Oc2cccc(Oc3nc(OC)cc(OC)n3)c2C(=O)[O-])n1.[Na+] [Bispyribac-sodium, bispyribac-sodium] | not inhibited | inhibited | 0.421 | 74.8 | 0.00563 |  |
| COc1nc(C)nc(NC(=O)NS(=O)(=O)c2ccccc2Cl)n1 [Chlorsulfuron, chlorsulfuron] |  |  | 0.0928 | 5.36 | 0.0173 | inhibited |
